# Test: Antineuroinflammatory activity in mouse BV2 cells assessed as inhibition of LPS-induced nitric oxide production after 24 hrs by Griess assay
# Assay type: functional, cell-based
# Settings: BV-2, 24 h
row,Compound,IC50 [µM]
1,c1cc2c(cc1[C@@H]1OC[C@@H]3[C@H]1CO[C@H]3c1ccc3c(c1)OCO3)OCO2,26.3
2,COc1cc([C@@H](O)[C@@H](CO)Oc2ccc(/C=C/C=O)cc2OC)ccc1O,1.05
3,COc1cc([C@H](O)[C@@H](CO)Oc2ccc(/C=C/C=O)cc2OC)ccc1O,0.929
4,COc1cc([C@H]2OC[C@H]3[C@@H]2CO[C@@H]3c2ccc(O)c(OC)c2)ccc1O,31.1
5,COc1cc([C@@H](O)[C@H](CO)Oc2c(OC)cc([C@@H]3OC[C@H]4[C@H](c5ccc(O)c(OC)c5)OC[C@@]34O)cc2OC)ccc1O,> 500
6,COc1cc(C(OC)[C@H]2CO[C@H](c3ccc(O)c(OC)c3)[C@H]2CO)ccc1O (stereo partly drawn),33
7,COc1cc([C@@H]2OC[C@@H]3[C@H]2CO[C@H]3c2cc(OC)c(O)c(OC)c2)cc(OC)c1O,27.5
8,COc1cc([C@@H](O)[C@@H](CO)Oc2ccc(/C=C/CO)cc2OC)ccc1O (relative stereo),32.6
9,COc1cc([C@@H](O)[C@@H](CO)Oc2c(OC)cc(/C=C/CO)cc2OC)ccc1O (relative stereo),23.5
10,COc1cc([C@@H](O)[C@@H](CO)Oc2ccc(C=O)cc2OC)ccc1O (relative stereo),47.6
11,COc1cc(/C=C/CO)ccc1O[C@H](CO)[C@@H](O)c1cc(OC)c(O)c(OC)c1 (relative stereo),9.14
12,COc1cc([C@@H]2OC[C@@]3(O)[C@H](c4ccc5c(c4)OCO5)OC[C@@H]23)ccc1O (relative stereo),> 500
13,COc1cc([C@@H]2OC[C@@H]3[C@H]2CO[C@H]3c2ccc(O)c(OC)c2)ccc1O [(+)-PINORESINOL],25.1

# More lines, now with the values ahead:
row,IC50 [µM],Compound
1,7.07,COc1cc([C@@H]2Oc3c(OC)cc(/C=C/C=O)cc3[C@H]2CO)ccc1O
2,15.3,COc1cc(C(O)C(CO)Oc2c(OC)cc([C@@H]3Oc4c(OC)cc(/C=C/C=O)cc4[C@H]3CO)cc2OC)ccc1O (stereo partly drawn)
3,35.4,Oc1ccc([C@@H]2OC[C@H]3[C@H](c4ccc5c(c4)OCO5)OC[C@@]23O)cc1
4,19.3,COc1cc(C(O)C(CO)Oc2c(OC)cc([C@@H]3OC[C@@H]4[C@H]3CO[C@H]4c3ccc(O)c(OC)c3)cc2OC)ccc1O (stereo partly drawn)
5,10,COc1cc([C@@H]2Oc3c(OC)cc(/C=C/C=O)cc3[C@H]2CO)cc(OC)c1O
6,32.6,COc1cc([C@@H]2OC[C@@H]3[C@H]2CO[C@H]3c2ccc3c(c2)OCO3)ccc1O [PIPERITOL]

# Test: Cytotoxicity against LPS-stimulated mouse BV2 cells assessed as cell viability at 20 uM by MTT assay relative to control
# Assay type: cell-based, BV-2
# Settings: read-out: Activity
row,Compound,viability at 20 µM [%]
1,COc1cc([C@@H]2Oc3c(OC)cc(/C=C/C=O)cc3[C@H]2CO)ccc1O,115
2,c1cc2c(cc1[C@@H]1OC[C@@H]3[C@H]1CO[C@H]3c1ccc3c(c1)OCO3)OCO2,126
3,COc1cc(C(O)C(CO)Oc2c(OC)cc([C@@H]3Oc4c(OC)cc(/C=C/C=O)cc4[C@H]3CO)cc2OC)ccc1O (stereo partly drawn),129
4,COc1cc([C@@H](O)[C@@H](CO)Oc2ccc(/C=C/C=O)cc2OC)ccc1O,123
5,COc1cc([C@H](O)[C@@H](CO)Oc2ccc(/C=C/C=O)cc2OC)ccc1O,129
6,COc1cc([C@H]2OC[C@H]3[C@@H]2CO[C@@H]3c2ccc(O)c(OC)c2)ccc1O,111
7,Oc1ccc([C@@H]2OC[C@H]3[C@H](c4ccc5c(c4)OCO5)OC[C@@]23O)cc1,109
8,COc1cc(C(O)C(CO)Oc2c(OC)cc([C@@H]3OC[C@@H]4[C@H]3CO[C@H]4c3ccc(O)c(OC)c3)cc2OC)ccc1O (stereo partly drawn),121
9,COc1cc([C@@H](O)[C@H](CO)Oc2c(OC)cc([C@@H]3OC[C@H]4[C@H](c5ccc(O)c(OC)c5)OC[C@@]34O)cc2OC)ccc1O,108
10,COc1cc([C@@H]2Oc3c(OC)cc(/C=C/C=O)cc3[C@H]2CO)cc(OC)c1O,120
11,COc1cc(C(OC)[C@H]2CO[C@H](c3ccc(O)c(OC)c3)[C@H]2CO)ccc1O (stereo partly drawn),115
12,COc1cc([C@@H]2OC[C@@H]3[C@H]2CO[C@H]3c2cc(OC)c(O)c(OC)c2)cc(OC)c1O,110
13,COc1cc([C@@H](O)[C@@H](CO)Oc2ccc(/C=C/CO)cc2OC)ccc1O (relative stereo),117
14,COc1cc([C@@H](O)[C@@H](CO)Oc2c(OC)cc(/C=C/CO)cc2OC)ccc1O (relative stereo),120
15,COc1cc([C@@H](O)[C@@H](CO)Oc2ccc(C=O)cc2OC)ccc1O (relative stereo),116
16,COc1cc(/C=C/CO)ccc1O[C@H](CO)[C@@H](O)c1cc(OC)c(O)c(OC)c1 (relative stereo),123
17,COc1cc([C@@H]2OC[C@@]3(O)[C@H](c4ccc5c(c4)OCO5)OC[C@@H]23)ccc1O (relative stereo),108
18,COc1cc([C@@H]2OC[C@@H]3[C@H]2CO[C@H]3c2ccc(O)c(OC)c2)ccc1O [(+)-PINORESINOL],115
19,COc1cc([C@@H]2OC[C@@H]3[C@H]2CO[C@H]3c2ccc3c(c2)OCO3)ccc1O [PIPERITOL],113
